# Source: patent US20190046536A1, “Combination Therapy” (Eli Lilly and Company, priority 2016, published 2019)
# Assay: Stability of the crystal form
# Assay type: physicochemical
# Conditions: room temperature and relative humidity greater than about 15%
structure (smiles),measurement,value
"COc1cnc(C(=O)Nc2ccc(F)c([C@]34CN(c5ncc(F)cn5)C[C@H]3CSC(N)=N4)c2)cn1 [Example 2, N-[3-[(4aR,7aS)-2-Amino-6-(5-fluoropyrimidin-2-yl)-4,4a, 5,7-tetrahydropyrrolo[3,4-d][1,3]thiazin-7a-yl]-4-fluoro-phenyl]-5-methoxy-pyrazine-2-carboxamide]",crystal form stability,stable crystal form
